Where no end group is shown, it is not given here.
Assay type: physicochemical
Experimental: Formulation preparation—Lyophilized cake of the CSP 7 mer was prepared using lyophilization. Five hundred μg/mL of the CSP 7 mer solution was prepared as follows: the peptide powder was dissolved in DPBS with minimal volume of ammonium hydroxide (pH 7-8) and 1.5% w/v of mannitol was added in to the solution. The solution was sterile filtered using 0.2 μm SFCA sterile syringe filter (Corning Inc., Corning, N.Y.). Effect of filtration was also tested. One milliliter of the filtrate was filled into a borosilicate glass vial and lyophilized using a VirTis Advantage Lyophilizer (VirTis Company Inc., Gardiner, N.Y.). Lyophilization cycle parameters were set as outlined in Table 2. Primary drying time was varied by number of samples. Nebulization study of the CSP 7 mer peptide—Lyophilized peptide was reconstituted with sterile water for injection (500 μg/mL). […] The condensate of each sample was collected in a polypropylene tube and kept at 5° C. until analyzed. The amount of peptide in each sample was analyzed using high performance liquid chromatography (HPLC) and the degradation products was detected using liquid chromatography mass spectroscopy (LC/MS). Chromatographic conditions—Samples were analyzed using a Dionex 3000 high performance liquid chromatography (HPLC) system (Thermo Fisher Scientific, Fair Lawn, N.J.) with a wavelength of 220 nm. […]

## FTTFTVT [CSP-7, FTTFTVT]
  percent recovery of the peptide (chemical assay, % of peptide remaining): did not have an influence
